Reference: BindingDB's records for doi:10.1021/acs.jmedchem.1c00726 (University of Florida, 2021)

Biological target: 5-hydroxytryptamine receptor 2B (Homo sapiens, UniProt P41595)
Assay: Displacement of [3H]LSD from human recombinant 5-HT2B receptor expressed in CHO cells by radioligand completion assay relative to control

5-hydroxytryptamine receptor 2B, sequence (P41595 whole entry): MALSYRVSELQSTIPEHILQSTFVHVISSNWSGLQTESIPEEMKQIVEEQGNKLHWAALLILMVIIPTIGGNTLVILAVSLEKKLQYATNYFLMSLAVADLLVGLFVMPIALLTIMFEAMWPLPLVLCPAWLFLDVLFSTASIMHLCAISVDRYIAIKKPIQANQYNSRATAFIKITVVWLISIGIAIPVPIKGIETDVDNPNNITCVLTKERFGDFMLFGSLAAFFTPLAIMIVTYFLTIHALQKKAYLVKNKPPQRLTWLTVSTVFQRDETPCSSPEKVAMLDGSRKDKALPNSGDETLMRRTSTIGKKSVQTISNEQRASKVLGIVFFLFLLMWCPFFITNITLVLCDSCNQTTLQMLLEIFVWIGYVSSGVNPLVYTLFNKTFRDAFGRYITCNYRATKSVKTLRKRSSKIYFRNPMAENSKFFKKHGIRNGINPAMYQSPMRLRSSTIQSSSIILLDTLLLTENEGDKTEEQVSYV

COc1cc(C[C@@H](C)N)c(OC)cc1I [(R)-2-(4-iodo-2,5-dimethoxyphenyl)-1-methylethylamine]
Ki: 2.2 nM
